Data taken from paper PMC11111691, “Cystine-knot peptide inhibitors of HTRA1 bind to a cryptic pocket within the active site region” (Nature Communications, 2024).
Positions of bridges follow the written chain, without caps; N, C: chain ends. Residues, ends and D or L forms follow the SMILES beside them.

How the values were obtained:
HTRA1^FL = target: T1, HTRA1^FL (Homo sapiens, UniProt Q92743); assay: HTRA1^FL enzyme inhibition assay with synthetic substrate H2-OPT; type: biochemical
T1 construct: Human full-length HTRA1 (HTRA1^FL, Q23-P480); made in house; host or cells: Trichoplusia ni cells
T1 sequence (Q92743 23-480): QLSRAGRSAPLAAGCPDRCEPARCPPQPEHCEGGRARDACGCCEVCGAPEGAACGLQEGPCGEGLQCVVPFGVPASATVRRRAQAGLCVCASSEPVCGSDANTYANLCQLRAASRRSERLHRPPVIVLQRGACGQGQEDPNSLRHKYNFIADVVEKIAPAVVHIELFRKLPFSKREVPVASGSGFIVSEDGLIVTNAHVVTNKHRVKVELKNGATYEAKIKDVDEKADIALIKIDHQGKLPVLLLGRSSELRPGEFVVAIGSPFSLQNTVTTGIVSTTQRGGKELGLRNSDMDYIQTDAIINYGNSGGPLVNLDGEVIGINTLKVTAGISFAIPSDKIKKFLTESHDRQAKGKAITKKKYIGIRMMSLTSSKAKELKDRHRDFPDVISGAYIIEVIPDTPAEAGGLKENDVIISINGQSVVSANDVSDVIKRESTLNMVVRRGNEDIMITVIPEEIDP
Method: Assays with the fluorescence-quenched synthetic substrate Mca-IRRVSYSFK(Dnp)K (H2-OPT)[38],[60] were carried out essentially as described. CKP stock solutions in DMSO were diluted in TNC buffer (dilution series for IC50 determinations, or final concentration of 2 µM for selectivity assay or as indicated for HTRA1/4 mutants) and incubated with enzymes in 96-well black optical bottom plates for 60 min at 37 °C. For selectivity experiments we used the 7mer-ABP as inhibitor, which was incubated with the proteases for 15 min at 37 °C. A 10 mM stock solution of H2-OPT in DMSO was diluted with water, prewarmed at 37 °C and then added to the CKP-enzyme mixtures. The final concentrations in the reaction mixtures were: 1 nM HTRA1^FL, 3 nM HTRA1^PD/PDZ, 1 nM HTRA1^PD, 1 nM HTRA2^PD/PDZ, 3 nM HTRA3^FL, 60 nM HTRA3^PD/PDZ, 6 nM HTRA4^FL, 1 µM HTRA4^PD/PDZ, 1 nM mouse HTRA1^PD, 25 nM HTRA1^PD-A202Y, 1 µM HTRA4^PD/PDZ-Y200A, 0.5 mM 7mer-ABP, 5 µM H2-OPT, and 0.25% DMSO. The kinetics of substrate cleavage was measured at 37 °C on a SpectraMax M5 microplate reader with excitation of 328 nm and emission of 393 nm. The determined initial rates of cleavage were expressed as percent of control (DMSO control) after subtracting the baseline rates (without enzyme). IC50 values were determined by Sigmoidal 4PL modeling of multiple data points from serial dilutions of CKPs using Prism 9 software (GraphPad). For selectivity assays with HTRA1-4^PD/PDZ constructs, the specific activities of the enzymes and enzyme:CKP inhibitor ratios were as follows: HTRA1^PD/PDZ, 12560 mRFU/min/nM – 1:667; HTRA2^PD/PDZ, 32300 mRFU/min/nM – 1:2000; HTRA3^PD/PDZ, 962 mRFU/min/nM – 1:33; HTRA4^PD/PDZ, 18 mRFU/min/nM – 1:2.

HTRA1^PD(SA) = target: T2, HTRA1^PD(SA) (Homo sapiens, UniProt Q92743, S328A); assay: SPR binding kinetics to HTRA1^PD(SA); conditions: SPR, calculated from kon and koff; mean ± S.D. of three or more independent experiments; CPI up to 10 µM
T2 construct: The protease domains of human HTRA1 (HTRA1^PD; D161-K379); made in house; host or cells: E. coli
T2 sequence (Q92743 161-379 S328A): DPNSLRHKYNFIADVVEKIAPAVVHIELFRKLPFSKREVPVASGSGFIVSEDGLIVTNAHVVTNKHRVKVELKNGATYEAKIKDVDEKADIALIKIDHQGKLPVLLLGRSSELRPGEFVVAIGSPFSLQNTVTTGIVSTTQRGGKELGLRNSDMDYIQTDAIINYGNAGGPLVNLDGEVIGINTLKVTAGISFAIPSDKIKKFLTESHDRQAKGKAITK
Method: Surface plasmon resonance (SPR) experiments were performed using a Biacore S200 instrument at 25 °C. His-tagged HTRA proteins were captured on a CM5 sensor chip using the His-capture kit (GE Healthcare). Protein concentrations used for immobilization were as follows; HTRA1^PD(SA), HTRA1^PD and HTRA1^PD-ABP 2 µg/ml with 60-s injections at 10 µl/min, HTRA2^PD/PDZ, HTRA3^PD/PDZ, and HTRA4^PD/PDZ 4 µg/ml with 60-s injections at 10 µl/min. Approximate immobilization levels of HTRA proteins were as follows; HTRA1^PD(SA) 700 RU, HTRA1^PD 900 RU, HTRA1^PD-ABP 900 RU, HTRA2^PD/PDZ 500 RU, HTRA3^PD/PDZ 500 RU, HTRA4^PD/PDZ 500 RU. All CKPs were prepared in HBS-EP buffer (0.01 M HEPES pH 7.4, 0.15 M NaCl, 3 mM EDTA, 0.005% v/v Surfactant P20). All CKP concentrations were injected for 120 s at a flow rate of 30 μl/min. A reference channel was subtracted from the HTRA-captured channel.
Binding kinetics of peptides to HTRA1^PD(SA) were determined by flowing six serial three-fold dilutions of peptide over the HTRA1^PD(SA) immobilized surface using a single cycle kinetics model. CKP maximum concentrations were as follows: 1A7, 1A8, 1C10, 2D5, and 3A7, 300 nM; 1G10-ENI and 1D3-ENI, 100 nM; 3B3, 3000 nM; and CPI, 10,000 nM. Data were analyzed using GE BIA evaluation software using a 1:1 Langmuir binding model. The KD values, calculated from the determined kon and koff values, were the mean ± S.D. of 3–4 independent experiments.

Question: What does the source list for CC[C@H](C)[C@H](NC(=O)[C@@H]1CCCN1C(=O)[C@H](CC(=O)O)NC(=O)[C@H](C)NC(=O)[C@@H](N)Cc1c[nH]cn1)C(=O)N[C@H]1CSSC[C@@H]2NC(=O)[C@H](Cc3ccccc3)NC(=O)[C@H](Cc3c[nH]c4ccccc34)NC(=O)[C@H](C)NC(=O)CNC(=O)[C@H](CO)NC(=O)[C@@H]3CSSC[C@@H](C(=O)NCC(=O)N4CCC[C@H]4C(=O)N[C@@H](Cc4ccc(O)cc4)C(=O)N[C@H](C(=O)NCC(N)=O)C(C)C)NC(=O)[C@H]([C@@H](C)O)NC(=O)[C@H](CCCNC(=N)N)NC(=O)[C@H](C)NC(=O)[C@H](CO)NC(=O)[C@H](CC(N)=O)NC(=O)[C@H](Cc4c[nH]c5ccccc45)NC(=O)[C@H](CSSC[C@H](NC(=O)[C@@H]4CCCN4C(=O)[C@H](CCCCN)NC(=O)[C@H](CC(N)=O)NC1=O)C(=O)N[C@@H](CCCCN)C(=O)N[C@@H]([C@@H](C)O)C(=O)N[C@@H](Cc1c[nH]cn1)C(=O)N[C@@H](CC(=O)O)C(=O)N[C@@H](CC(=O)O)C(=O)N3)NC(=O)[C@H](C)NC(=O)[C@H](CCC(N)=O)NC2=O [CPI, reference compound] (H-HADPICNKPCKTHDDCSGAWFCQACWNSARTCGPYVG-NH2; disulfide 6-22, 10-25, 16-32)?
Answer: Inhibition of HTRA1^FL activity (inhibition curves) (HTRA1^FL; H2-OPT substrate, Fig. 1b): no activity; KD (HTRA1^PD(SA)): No binding

Question: Which IC50 (HTRA1^FL) does the source give for CC[C@H](C)[C@H](NC(=O)[C@H](CCC(N)=O)NC(=O)[C@H](CCCNC(=N)N)NC(=O)[C@H](CC(C)C)NC(=O)CNC(=O)[C@H](Cc1c[nH]c2ccccc12)NC(=O)CNC(=O)[C@@H]1CSSC[C@@H]2NC(=O)[C@H](CC(=O)O)NC(=O)[C@H](CC(=O)O)NC(=O)[C@H](Cc3c[nH]cn3)NC(=O)[C@H]([C@@H](C)O)NC(=O)[C@H](CCCCN)NC(=O)[C@@H]3CSSC[C@H](NC(=O)[C@H]([C@@H](C)O)NC(=O)[C@H](CCC(N)=O)NC(=O)[C@H](CSSC[C@H](NC(=O)[C@@H](NC(=O)[C@@H]4CCCN4C(=O)[C@H](CC(=O)O)NC(=O)[C@H](C)NC(=O)[C@@H](N)Cc4c[nH]cn4)[C@@H](C)CC)C(=O)N[C@@H](CC(N)=O)C(=O)N[C@@H](CCCCN)C(=O)N4CCC[C@H]4C(=O)N3)NC(=O)[C@H](Cc3ccccc3)NC(=O)[C@H](Cc3c[nH]c4ccccc34)NC(=O)[C@H](C)NC(=O)CNC(=O)[C@H](CO)NC2=O)C(=O)N[C@@H](Cc2ccc(O)cc2)C(=O)N[C@@H](CC(C)C)C(=O)N[C@@H](C)C(=O)N[C@@H]([C@@H](C)O)C(=O)N[C@@H](Cc2c[nH]c3ccccc23)C(=O)N[C@@H](CO)C(=O)N1)C(=O)N[C@@H](CC(=O)O)C(N)=O [Y27L] (H-HADPICNKPCKTHDDCSGAWFCQTCYLATWSCGWGLRQID-NH2; disulfide 6-22, 10-25, 16-32) here?
Answer: 49.9 ± 3.8 nM
